# Earlier results in PMC11659887 (ACS Bio & Med Chem Au, 2024).
# System: SARS-CoV-2 M^pro E166Q
smiles,measurement,value
"CC(C)(C)[C@H](NC(=O)C(F)(F)F)C(=O)N1C[C@H]2[C@@H]([C@H]1C(=O)N[C@H](C#N)C[C@@H]1CCNC1=O)C2(C)C [nirmatrelvir, Nirmatrelvir]",resistance to nirmatrelvir,no significant resistance
